One may read the IC50 as the midpoint of a concentration-inhibition curve. Read a low IC50 as higher potency. The term EC50 denotes the concentration needed to bring the measured effect to its halfway point. Read a low EC50 as a more potent agent.

The target in assay [1] is T1, IRE1a (Homo sapiens, UniProt O75460). The experiment in a line: In vitro FRET assay (XBP1 RNA probe cleavage by IRE1a). As to conditions: 2 nM IRE1a protein. The assay is classed as biochemical. The arrangement: purchased SignalChem. How it is done: In vitro FRET assay was performed to evaluate the ability of select compounds to inhibit IRE1, the results of which are summarized in Table 3. To perform the in vitro FRET assay, 1× complete assay buffer (CAB; […], 50 mM sodium citrate pH 7.15, ImM magnesium acetate, 0.02% tween 20) was used to dilute SignalChem IRE1a protein to a final concentration of 2 nM. Selected compounds were serially diluted with DMSO in a non-binding black 384-well plate for a total of 15 ul in each well. 2 ul of the serially diluted compound or DMSO control were then added to new wells containing 98 ul of 1×CAB, for a total volume of 100 ul, 10 ul of which were then transferred to wells of a new plate. 5 ul of the diluted IRE1a was then added to each well. 5 ul of a […] XBP1 RNA probe was then added to each well. Fluorescence was then read over 30 minutes in kinetic mode (485/515 nm).
Two RNA probes were used, XBP1 wildtype (SEQ ID NO: 2) which is able to be spliced by active IRE1a or XBP1 mutant (SEQ ID NO: 3) which is unable to be spliced. Each probe contained a 5′ 6-FAM modification and a 3′ IOWA Black FQ modification. […]

Assay [2] addresses T1, IRE1a. Nature of the assay: IRE1a Endoribonuclease Nanoluciferase Assay (XBP1 luciferase reporter in 293T cells). The assay is classed as cell-based. To be noted: 293T cells transfected with XBP1 luciferase reporter, ER stressors +/- inhibitors. The method, then: Compounds disclosed herein were assessed for disruption of IRE1 signaling using a IRE1a Endoribonuclease Nanoluciferase Assay. Briefly, 2.5×10^6 293T cells were seeded in a 10 cm^2 tissue culture plate. About 24 hours later, the cells were transfected with Effectene. In a 15 mL Tube, the following was added: 2 ug XBP1 luciferase reporter plasmid (PGK-Luc2-P2A-XBP1u-Nanoluciferase-PEST); 300 ul EC buffer; and 16 ul Enhancer, followed by incubation at room temp for 5 minutes. Next, 60 ul Effectene (Qiagen 301427) was added, followed by incubation at room temperature for 10 minutes. 2.6 mL cDMEM media was added. Old media was aspirated from the cells, followed by addition of 7 mL fresh media. Full transfection mixture was added dropwise to cells. Cells were incubated for 6 hours, followed by trypsinization, centrifugation and resuspension in 11 mL media. 100 uL of cells were plated per a well in a 96 well plate. A day later, ER stressors of choice +/− inhibitors were added. To harvest, media was aspirated from cells completely, then 50 uL 1× passive lysis buffer (Promega: E1941) was added per well and put on shaker (300 rpm) for 30 minutes at room temperature. Cells were centrifuged, and 15 uL sample per well was added to a new, opaque white 384 well plate (Corning 3570). 15 uL OneGlo (nanoluciferase kit, Promega N1630) was added. Plates were spun down, placed on shaker (300 rpm) for 10 minutes. Plates were read on luminometer, 1000 ms integration time per well. 15 uL Stop and Glo (nanoluciferase kit) was added. Plates were spun down, placed on shaker (300 rpm) for 10 minutes. Plates were read on luminometer, 1000 ms second integration time per well. Recordings are provided below in Table 4.

T1 sequence (O75460 19-977): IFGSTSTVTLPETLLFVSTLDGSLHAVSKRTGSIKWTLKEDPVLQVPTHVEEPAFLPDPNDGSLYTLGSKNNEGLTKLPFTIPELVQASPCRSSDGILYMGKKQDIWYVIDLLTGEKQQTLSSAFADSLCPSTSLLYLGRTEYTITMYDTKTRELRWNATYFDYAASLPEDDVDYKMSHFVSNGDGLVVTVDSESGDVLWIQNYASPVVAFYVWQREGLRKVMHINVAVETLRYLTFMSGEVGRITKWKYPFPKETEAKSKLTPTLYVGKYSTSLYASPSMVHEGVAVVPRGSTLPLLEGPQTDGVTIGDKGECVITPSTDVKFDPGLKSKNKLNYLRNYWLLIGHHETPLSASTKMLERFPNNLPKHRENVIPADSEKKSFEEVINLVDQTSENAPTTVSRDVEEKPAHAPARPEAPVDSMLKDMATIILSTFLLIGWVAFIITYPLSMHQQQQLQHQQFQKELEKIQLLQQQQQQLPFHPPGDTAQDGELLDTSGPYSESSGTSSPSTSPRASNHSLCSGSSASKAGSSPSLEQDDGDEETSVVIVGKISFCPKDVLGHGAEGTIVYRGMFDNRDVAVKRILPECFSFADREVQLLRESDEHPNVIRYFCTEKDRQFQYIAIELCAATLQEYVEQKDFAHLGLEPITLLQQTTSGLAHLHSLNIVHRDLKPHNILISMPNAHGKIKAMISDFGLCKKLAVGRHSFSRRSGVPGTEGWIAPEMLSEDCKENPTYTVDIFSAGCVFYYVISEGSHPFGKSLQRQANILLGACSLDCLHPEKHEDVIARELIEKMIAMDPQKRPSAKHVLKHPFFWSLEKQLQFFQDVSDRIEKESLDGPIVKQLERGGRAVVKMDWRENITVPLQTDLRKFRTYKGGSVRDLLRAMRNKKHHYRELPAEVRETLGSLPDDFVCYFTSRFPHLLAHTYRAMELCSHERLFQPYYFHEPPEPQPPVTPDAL

Turning to `COc1nc(NS(=O)(=O)c2ccccc2C#N)ccc1-c1cc2cnc(N[C@H]3CC[C@H](N)CC3)nc2cc1C` [102; Formic Acid], the IC50 against IRE1a [1] is at most 5 nM. Further, the EC50 on IRE1a [2] was in the range of 50 to 100 nM.

In turn, `CCc1cc(-c2ccc(NS(=O)(=O)c3ccccc3C)nc2OC)cc2cnc(N[C@H]3CC[C@H](N)CC3)nc12` [103; Formic Acid] had an IC50 on IRE1a [1] of at most 5 nM. In addition, at IRE1a [2], the EC50 was at most 5 nM.

`COc1nc(NS(=O)(=O)c2ccccc2Cl)ccc1-c1cc2cnc(N[C@H]3CC[C@H](N)CC3)nc2cc1C` [104; Formic Acid] gave an IC50 against IRE1a [1] of at most 5 nM. Besides, the EC50 at IRE1a [2] lay in the range of 50 to 100 nM.

For `CCc1cc(-c2ccc(NS(=O)(=O)c3ccccc3Cl)nc2OC(F)(F)F)cc2cnc(N[C@H]3CC[C@H](N)CC3)nc12` [107; Formic Acid], the IC50 at IRE1a [1] was at most 5 nM. Also, the EC50 at IRE1a [2] is at most 5 nM.

As for `CCc1cc(-c2ccc(NS(=O)(=O)c3ccccc3OC)nc2OC)cc2cnc(N[C@H]3CC[C@H](N)CC3)nc12` [109; Formic Acid], the IC50 at IRE1a [1] was at most 5 nM. In addition, the EC50 on IRE1a [2] was at most 5 nM.

As to `CCc1cc2nc(N[C@H]3CC[C@H](N)CC3)ncc2cc1-c1ccc(NS(=O)(=O)c2ccccc2Cl)nc1OC` [110; Formic Acid], the IC50 on IRE1a [1] was at most 5 nM. The molecule also displayed an EC50 on IRE1a [2] of at most 5 nM.

`CCc1cc(-c2ccc(NS(=O)(=O)c3ccccc3)nc2C)cc2cnc(N[C@H]3CC[C@H](N)CC3)nc12` [111; Formic Acid] had an IC50 on IRE1a [1] of at most 5 nM. Further, the half-maximal effective concentration (EC50) on IRE1a [2] lay within 50 to 100 nM.

The molecule `CCc1cc(-c2ccc(NS(=O)(=O)c3ccccc3C)nc2C)cc2cnc(N[C@H]3CC[C@H](N)CC3)nc12` [112; Formic Acid] came in with an IC50 at IRE1a [1] of at most 5 nM. Also, at IRE1a [2], the EC50 was 5 to 50 nM.

`CCc1cc(-c2ccc(NS(=O)(=O)c3cccc(C)c3)nc2C)cc2cnc(N[C@H]3CC[C@H](N)CC3)nc12` [113; Formic Acid]: the IC50 at IRE1a [1] was at most 5 nM. At IRE1a [2], this molecule gave an EC50 of 5 to 50 nM.

As for `COc1nc(NS(=O)(=O)c2ccccc2Cl)ccc1-c1cc(C)c2nc(N[C@H]3CC[C@H](N)CC3)ncc2c1` [115; Formic Acid], at IRE1a [1], the IC50 was at most 5 nM. This molecule also registered a concentration giving a half-maximal response (EC50) on IRE1a [2] of at most 5 nM.

`CCc1cc(-c2cc(F)c(NS(=O)(=O)c3ccccc3Cl)cc2OC)cc2cnc(N[C@H]3CC[C@H](N(C)C)CC3)nc12` [120; Formic Acid] returned an IC50 on IRE1a [1] of at most 5 nM. On IRE1a [2], this molecule returned an EC50 of at most 5 nM.

In the case of `CCc1cc(-c2cc(F)c(NS(=O)(=O)c3ccccc3Cl)cc2OC)cc2cnc(N[C@H]3CC[C@H](NC)CC3)nc12` [121; Formic Acid], the IC50 against IRE1a [1] was at most 5 nM. In addition, on IRE1a [2], the EC50 is at most 5 nM.

On to `COc1nc(NS(=O)(=O)c2ccccc2Cl)ccc1-c1cc(C(C)(F)F)c2nc(N[C@H]3CC[C@H](N)CC3)ncc2c1` [123; Formic Acid], for which the IC50 on IRE1a [1] was at most 5 nM. The molecule further returned an EC50 on IRE1a [2] of at most 5 nM.

As for `COCc1cc(-c2ccc(NS(=O)(=O)c3ccccc3Cl)nc2OC)cc2cnc(N[C@H]3CC[C@H](N)CC3)nc12` [129; Formic Acid], the IC50 against IRE1a [1] is at most 5 nM. Besides, the EC50 at IRE1a [2] was at most 5 nM.

Consider `COc1nc(NS(=O)(=O)c2ccccc2Cl)ccc1-c1cc(C(F)(F)F)c2nc(N[C@H]3CC[C@H](N)CC3)ncc2c1` [134; Formic Acid], for which the IC50 at IRE1a [1] was at most 5 nM. The molecule further registered an EC50 at IRE1a [2] of at most 5 nM.

At IRE1a [1], `CCc1nc(NS(=O)(=O)c2ccccc2Cl)ccc1-c1cc(CC)c2nc(NC34CCC(N(C)C)(CC3)CC4)ncc2c1` [136; Formic Acid] registered an IC50 of at most 5 nM. The same molecule yielded an EC50 at IRE1a [2] of at most 5 nM.

As for `COc1nc(NS(=O)(=O)c2ccccc2Cl)ccc1-c1cc(C)c2nc(N[C@H]3CC[C@@H](N)CC3)ncc2c1` [138; Formic Acid], the IC50 against IRE1a [1] was at most 5 nM. This molecule gave an EC50 on IRE1a [2] of 50 to 100 nM.

The molecule `Cn1nc(NS(=O)(=O)c2ccccc2Cl)cc1-c1ccc2nc(N[C@H]3CC[C@H](N)CC3)ncc2c1` [Compound 1, N-(5-(2-(((1r,4r)-4-aminocyclohexyl)amino)quinazolin-6-yl)-1-methyl-1H-pyrazol-3-yl)-2-chlorobenzenesulfonamide] returned an IC50 against IRE1a [1] of 5 to 50 nM. Moreover, at IRE1a [2], the EC50 is over 100 nM.

The record behind these values is US20180346446A1, “IRE1 SMALL MOLECULE INHIBITORS” (QUENTIS THERAPEUTICS, INC., priority 2017, published 2018).
